The target of one assay is T1, RET(KD: 658-1114 G810R) (Homo sapiens, UniProt P07949, G810R).
T1 construct: 658-1114; expressed in transfected cells; host or cells: 293T.165 (293T cells, generated in-house)
T1 sequence (P07949 658-1114 G810R): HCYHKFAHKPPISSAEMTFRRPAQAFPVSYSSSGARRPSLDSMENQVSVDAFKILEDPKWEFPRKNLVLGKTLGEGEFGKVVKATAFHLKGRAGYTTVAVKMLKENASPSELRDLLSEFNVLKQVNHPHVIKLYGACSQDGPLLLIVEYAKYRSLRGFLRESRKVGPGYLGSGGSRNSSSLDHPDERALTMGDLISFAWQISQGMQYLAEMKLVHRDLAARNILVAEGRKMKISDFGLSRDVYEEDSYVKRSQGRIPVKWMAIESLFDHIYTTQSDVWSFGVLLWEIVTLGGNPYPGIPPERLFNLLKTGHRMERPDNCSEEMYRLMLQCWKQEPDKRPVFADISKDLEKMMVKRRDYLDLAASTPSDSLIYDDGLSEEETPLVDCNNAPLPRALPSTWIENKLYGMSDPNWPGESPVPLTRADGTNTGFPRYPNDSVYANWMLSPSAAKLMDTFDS
Nature of the assay: HiBiT-Degradation, RET G810R degradation assay (Nano-Glo HiBiT Lytic), 293T.165 cells. In kind it is cell-based. The settings on record: for Emax / DC50: 6.0 hours; for Emax: % remaining protein, read-out: 293T.165 RET(KD: 658-1114 G810R) 6.0 hours (Emax); for DC50: read-out: 293T.165 RET(KD: 658-1114 G810R) 6.0 hours (DC50). Put shortly: (§1)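 Degradation after 6 h compound exposure (top 10 μM, 11 half-log points, duplicates) measured by Nano-Glo HiBiT lytic luminescence. Cells: 293T.144 carrying wild-type and 293T.165 carrying G810R HiBiT-RET kinase domain; curves yield DC50 and Emax.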

In the next assay the target is T2, RET (658-1114) (Homo sapiens, UniProt P07949).
T2 construct: 658-1114; expressed in transfected cells; host or cells: 293T.144 (293T cells, generated in-house)
T2 sequence (P07949 658-1114): T1 sequence (P07949 658-1114 G810R) with R153G
Kind of assay: HiBiT-Degradation, RET wild-type degradation assay (Nano-Glo HiBiT Lytic), 293T.144 cells. In kind it is cell-based. The settings on record: for Emax / DC50: 6.0 hours; for Emax: read-out: 293T.144 RET (658-1114) 6.0 hours (Emax); for DC50: read-out: 293T.144 RET (658-1114) 6.0 hours (DC50). The procedure, abridged: as §1
In general terms: The HiBiT peptide binds its large partner to form an active luciferase.

The mark [1] stands for this setting: half-maximal degradation concentration.

The term Emax denotes the greatest response seen or fitted, relative to the assay's reference. By DC50 is commonly meant the midpoint of the concentration-degradation curve.

Where a chain is given by its changes, count along the chain named. Where two headings read alike, the source gives them in different places.

Turning to `COc1ccc(CN2C3CC2CN(c2ccc(-c4nc(-c5cnn([C@H]6CC[C@@H](N7CCC(c8cc9c(cc8F)c(N8CCC(=O)NC8=O)nn9C)C(F)(F)C7)CC6)c5)cn5ncc(C#N)c45)cn2)C3)cn1` (relative stereo) [Compound 200, 6-(1-((1s, 4s)-4-(4-(3-(2,4-Dioxotetrahydropyrimidin-1(2H)-yl)-5-fluoro-1-methyl-1H-indazol-6-yl)-3,3-difluoropiperidin-1-yl)cyclohexyl)-1H-pyrazol-4-yl)-4-(6-(6-((6-methoxypyridin-3-yl)methyl)-3,6-diazabicyclo[3.1.1]heptan-3-yl)pyridin-3-yl)pyrazolo[1,5-a]pyrazine-3-carbonitrile], the “293T.165 RET(KD: 658-1114 G810R) 6.0 hours (IP) [nM]” value at RET(KD: 658-1114 G810R) is on record as “++++ (<50 nM = ++++)”. Also, the Emax was under 50% on RET(KD: 658-1114 G810R) and under 30% on RET (658-1114) (% remaining protein). Further, the DC50 at RET(KD: 658-1114 G810R) (setting [1]) and on RET (658-1114) (setting [1]) was under 50 nM each time. In addition, on RET (658-1114), the “293T.144 RET (658-1114) 6.0 hours (IP) [nM]” value (shortened to “293T.144 RET”) is on record as “++++ (<50 nM = ++++)”.
For the compound `N#Cc1cnn2cc(-c3cnn([C@H]4CC[C@H](CCN5CCC(c6ccc(NC7CCC(=O)NC7=O)cc6F)CC5)CC4)c3)nc(-c3ccc(N4CCN(C(=O)Cc5ccc(F)cn5)CC4)nc3)c12` (stereo partly drawn) [Compound 60, 6-[1-[(1r,4r)-4-[2-[4-[4-[(2,6-dioxo-3-piperidyl)amino]-2-fluoro-phenyl]-1-piperidyl]ethyl]cyclohexyl]pyrazol-4-yl]-4-[6-[4-[2-(5-fluoro-2-pyridyl)acetyl]piperazin-1-yl]-3-pyridyl]pyrazolo[1,5-a]pyrazine-3-carbonitrile], on RET(KD: 658-1114 G810R), the Emax was under 30%. For the same compound, the DC50 on RET(KD: 658-1114 G810R) (setting [1]) was under 50 nM. On RET(KD: 658-1114 G810R) (HiBiT-Degradation), the “293T.165 RET(KD: 658-1114 G810R) 6.0 hours (Emax)” value is reported as “++++ (< 30% = ++++)”, the “293T.165 RET(KD: 658-1114 G810R) 6.0 hours (IP) [nM]” value is on record as “++++ (< 50 nM = ++++)” and the DC50 is under 50 nM. For the same compound, on RET (658-1114) (HiBiT-Degradation), the “293T.144 RET” value is given as “++++ (< 50 nM = ++++)”, the DC50 is under 50 nM and the Emax is under 30%.
As to `CCC1(C(=O)NC(C)C)CCN(c2ccc(-c3nc(-c4cnn(C5CCN(C(=O)CC6(O)CC7(CN(c8ccc(NC9CCC(=O)NC9=O)cc8F)C7)C6)CC5)c4)cn4ncc(C#N)c34)cn2)CC1` (stereo not drawn) [Compound 97, 1-[5-[3-cyano-6-[1-[1-[2-[2-[4-[(2,6-dioxo-3-piperidyl)amino]-2-fluoro-phenyl]-6-hydroxy-2-azaspiro[3.3]heptan-6-yl]acetyl]-4-piperidyl]pyrazol-4-yl]pyrazolo[1,5-a]pyrazin-4-yl]-2-pyridyl]-4-ethyl-N-isopropyl-piperidine-4-carboxamide], the “293T.165 RET(KD: 658-1114 G810R) 6.0 hours (IP) [nM]” value at RET(KD: 658-1114 G810R) is on record as “++++ (<50 nM = ++++)”. Further, the Emax on RET(KD: 658-1114 G810R) is under 50%; at RET (658-1114) (% remaining protein), under 30%. Further, the DC50 on RET(KD: 658-1114 G810R) (setting [1]) is under 100 nM; on RET (658-1114) (setting [1]), under 50 nM. In addition, the “293T.144 RET” value on RET (658-1114) is “++++ (<50 nM = ++++)”.
Take `Cn1nc(N2CCC(=O)NC2=O)c2ccc(C3CCN(CC(=O)N4CCC(n5cc(-c6cc(-c7ccc(N8CCN(Cc9ccccn9)CC8)nc7)c7c(C#N)cnn7c6)cn5)CC4)CC3)cc21` [Compound 13, 6-(1-(1-(2-(4-(3-(2,4-dioxotetrahydropyrimidin-1(2H)-yl)-1-methyl-1H-indazol-6-yl)piperidin-1-yl)acetyl)piperidin-4-yl)-1H-pyrazol-4-yl)-4-(6-(4-(pyridin-2-ylmethyl)piperazin-1-yl)pyridin-3-yl)pyrazolo[1,5-a]pyridine-3-carbonitrile]: the Emax at RET(KD: 658-1114 G810R) was under 50%. Moreover, the DC50 at RET(KD: 658-1114 G810R) (setting [1]) was under 100 nM. In addition, at RET(KD: 658-1114 G810R) (HiBiT-Degradation), the “293T.165 RET(KD: 658-1114 G810R) 6.0 hours (Emax)” value is “+++ (<50% = +++)”, the “293T.165 RET(KD: 658-1114 G810R) 6.0 hours (IP) [nM]” value is “++++ (< 50 nM = ++++)” and the DC50 was under 100 nM. Also, on RET (658-1114) (HiBiT-Degradation), the “293T.144 RET” value is “++++ (< 50 nM = ++++)”, the DC50 is under 50 nM and the Emax is under 30%.
`CCC1(C(=O)NC(C)C)CCN(c2ccc(-c3nc(-c4cnn(C5CCN(C(=O)CC6(O)CCN(c7ccc(NC8CCC(=O)NC8=O)cc7F)CC6)CC5)c4)cn4ncc(C#N)c34)cc2)CC1` (stereo not drawn) [Compound 121, 1-(4-(3-Cyano-6-(1-(1-(2-(1-(4-((2,6-dioxopiperidin-3-yl)amino)-2-fluorophenyl)-4-hydroxypiperidin-4-yl)acetyl)piperidin-4-yl)-1H-pyrazol-4-yl)pyrazolo[1,5-a]pyrazin-4-yl)phenyl)-4-ethyl-N-isopropylpiperidine-4-carboxamide]: the “293T.165 RET(KD: 658-1114 G810R) 6.0 hours (IP) [nM]” value at RET(KD: 658-1114 G810R) was “++++ (<50 nM = ++++)”. Besides, the Emax at RET(KD: 658-1114 G810R) and at RET (658-1114) (% remaining protein) was under 30% throughout. Also, the DC50 at RET(KD: 658-1114 G810R) (setting [1]) and on RET (658-1114) (setting [1]) was under 50 nM throughout. In addition, the “293T.144 RET” value on RET (658-1114) is given as “++++ (<50 nM = ++++)”.
For `CCC1(C(=O)NC2CCC2)CCN(c2ccc(-c3nc(-c4cnn([C@H]5CC[C@H](CN6CCN(c7ccc(N[C@H]8CCC(=O)NC8=O)cc7F)CC6)CC5)c4)cn4ncc(C#N)c34)cn2)CC1` [Compound 189, 1-[5-[3-cyano-6-[1-[4-[[4-[4-[[(3S)-2,6-dioxo-3-piperidyl]amino]-2-fluoro-phenyl]piperazin-1-yl]methyl]cyclohexyl]pyrazol-4-yl]pyrazolo[1,5-a]pyrazin-4-yl]-2-pyridyl]-N-cyclobutyl-4-ethyl-piperidine-4-carboxamide], at RET(KD: 658-1114 G810R), the “293T.165 RET(KD: 658-1114 G810R) 6.0 hours (IP) [nM]” value was “++++ (<50 nM = ++++)”. Also, the maximal effect (Emax) on RET(KD: 658-1114 G810R) and on RET (658-1114) (% remaining protein) was under 30% each time. Also, the DC50 was under 100 nM at RET(KD: 658-1114 G810R) (setting [1]) and under 50 nM on RET (658-1114) (setting [1]). In addition, on RET (658-1114), the “293T.144 RET” value is listed as “++++ (<50 nM = ++++)”.
Regarding `N#Cc1cnn2cc(-c3ccc(N4CCN(C(=O)CN5CCC(c6ccc(NC7CCC(=O)NC7=O)cc6)CC5)CC4)cc3)cc(-c3ccc(N4C[C@H]5CC[C@@H](C4)O5)nc3)c12` (stereo partly drawn) [Compound 19, 4-(6-((1R,5S)-8—Oxa-3-azabicyclo[3.2.1]octan-3-yl)pyridin-3-yl)-6-(4-(4-(2-(4-(4-((2,6-dioxopiperidin-3-yl)amino)phenyl)piperidin-1-yl)acetyl)piperazin-1-yl)phenyl)pyrazolo[1,5-a]pyridine-3-carbonitrile], at RET(KD: 658-1114 G810R), the Emax was under 50%. Also, the DC50 at RET(KD: 658-1114 G810R) (setting [1]) was under 100 nM. Moreover, at RET(KD: 658-1114 G810R) (HiBiT-Degradation), the “293T.165 RET(KD: 658-1114 G810R) 6.0 hours (Emax)” value is “+++ (<50% = +++)”, the “293T.165 RET(KD: 658-1114 G810R) 6.0 hours (IP) [nM]” value is on record as “++++ (< 50 nM = ++++)” and the DC50 was under 100 nM. In addition, on RET (658-1114) (HiBiT-Degradation), the “293T.144 RET” value is “++++ (< 50 nM = ++++)”, the DC50 is under 50 nM and the Emax is under 30%.
`COc1cc(N2CCN([C@H]3CC[C@H](n4cc(-c5cn6ncc(C#N)c6c(-c6ccc(N7C[C@@H]8[C@@H](CNC(=O)c9ncccc9Cl)[C@@H]8C7)nc6)n5)cn4)CC3)CC2)c(F)cc1NC1CCC(=O)NC1=O` (stereo partly drawn) [Compound 168, 3-chloro-N-[[(1S,5R)-3-[5-[3-cyano-6-[1-[4-[4-[4-[(2,6-dioxo-3-piperidyl)amino]-2-fluoro-5-methoxy-phenyl]piperazin-1-yl]cyclohexyl]pyrazol-4-yl]pyrazolo[1,5-a]pyrazin-4-yl]-2-pyridyl]-3-azabicyclo[3.1.0]hexan-6-yl]methyl]pyridine-2-carboxamide]: on RET(KD: 658-1114 G810R), the “293T.165 RET(KD: 658-1114 G810R) 6.0 hours (IP) [nM]” value was “++++ (<50 nM = ++++)”. Also, the Emax at RET(KD: 658-1114 G810R) and at RET (658-1114) (% remaining protein) was under 30% throughout. In addition, the DC50 on RET(KD: 658-1114 G810R) (setting [1]) was under 100 nM; on RET (658-1114) (setting [1]), under 50 nM. The “293T.144 RET” value at RET (658-1114) is listed as “++++ (<50 nM = ++++)”.

The values above are taken from patent US12661410B2, “Compounds for targeted degradation of RET” (C4 Therapeutics, Inc., priority 2020, dated 2026).
